Like-named read-outs stand apart in the source and are kept apart here.
Target: human STING WT (Homo sapiens (Human), UniProt Q86WV6)
Assay: biochemical
Format: binding
Procedure: Cisbio Bioassays' human STING WI binding assay (#64BDSTGPEG & 64BDSTGPEH, Cisbio) is for quantitative measurement of human STING WI ligand using HTRF® technology.
Negative control: Dispense 5 μL of diluent into each negative control well. Standard: Dispense 5 μL of each Human STING WI Standard 2′3′-cGAMP (Std 0-Std 7) into each standard well. Compound: Dispense 5 μL of compound into each compound well.
Negative control: Add 5 μL of detection buffer to all wells. Other wells: Add 5 μL of human STING WT protein 6His-tagged protein to all wells.
Add 10 μL of premixed STING WT ligand d2 reagent and 6His Tb antibody working solution to all wells.
Seal the plate and incubate 3 hours at RT or at Over Night if necessary.
Remove the plate sealer and read on an HTRF® compatible reader (PerkinElmer, USA). Results were analyzed with a two-wavelength signal ratio: intensity (665 nm)/intensity (620 nm).
Cisbio Bioassays' human STING WT binding assay (#64BDSTGPEG & 64BDSTGPEH, Cisbio) is for quantitative measurement of human STING WT ligand using HTRF® technology.
Negative control: Dispense 5 μL of diluent into each negative control well. Standard: Dispense 5 μL of each Human STING WT Standard 2′3′-cGAMP (Std 0—Std 7) into each standard well. Compound: Dispense 5 μL of compound into each compound well.
[formula] • Fit the data in GraphPad to obtain IC50 values using equation (2)

[1] = HTRF, human STING WT 6His-tagged protein, incubation 3 hours at RT, read-out: hSTING WT binding IC50/nM
[2] = human STING WT, HTRF binding assay, read-out: hSTING WT binding IC50

Sequence of human STING WT (Q86WV6 whole entry): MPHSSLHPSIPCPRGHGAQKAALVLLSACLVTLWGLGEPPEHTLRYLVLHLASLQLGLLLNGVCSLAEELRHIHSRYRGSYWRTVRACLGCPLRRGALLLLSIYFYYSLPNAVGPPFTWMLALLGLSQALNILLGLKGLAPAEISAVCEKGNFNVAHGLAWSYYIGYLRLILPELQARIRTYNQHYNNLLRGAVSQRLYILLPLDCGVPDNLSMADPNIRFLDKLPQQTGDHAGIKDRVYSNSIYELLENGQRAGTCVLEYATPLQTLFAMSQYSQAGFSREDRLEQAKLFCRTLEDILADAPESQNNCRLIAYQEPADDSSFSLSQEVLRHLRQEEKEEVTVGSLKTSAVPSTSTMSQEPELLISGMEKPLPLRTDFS

Row | IC50 [1] [nM] | Compound | also measured
1 | > 150 | COc1cc2c(cc1CN(C)Cc1cc3c(cc1OC)CN(C(=O)CCC(=O)O)C3)CN(C(=O)CCC(=O)O)C2 [Example I-7, 4,4′-(((methylazanediyl)bis(methylene))bis(6-methoxyisoindoline-5,2-diyl))bis(4-oxobutanoic acid)] | 
2 | > 150 | COc1cc2c(cc1OCCCOc1c(OC)cc3c(c1Cl)CN(C(=O)CCC(=O)O)C3)CN(C(=O)CCC(=O)O)C2 [Example I-8, 4-(5-(3-((2-(3-carboxypropanoyl)-4-chloro-6-methoxyisoindolin-5-yl)oxy)propoxy)-6-methoxyisoindolin-2-yl)-4-oxobutanoic acid] | 

The next lines start with the compound.

Row | Compound | IC50 [1] [nM] | also measured
3 | C=C(COc1c(OC)cc2c(c1Cl)CN(C(=O)CCC(=O)O)C2)COc1c(OC)cc2c(c1Cl)CN(C(=O)CCC(=O)O)C2 [Example I-11, 4,4′-(((2-methylenepropane-1,3-diyl)bis(oxy))bis(4-chloro-6-methoxyisoindoline-5,2-diyl))bis(4-oxobutanoic acid)] | > 150 | 
4 | COc1cc2c(c(Cl)c1OCCCOc1c(OC)cc3c(c1Cl)CN(C(=O)CCC(=O)O)C3)CN(C(=O)CCC(=O)O)C2 [Example I-12, 4,4′-((propane-1,3-diylbis(oxy))bis(4-chloro-6-methoxyisoindoline-5,2-diyl))bis(4-oxobutanoic acid)] | > 150 | 
5 | COc1cc2c(cc1OCCCOc1cc3cc(C(=O)CCC(=O)O)sc3cc1O)CN(C(=O)CCC(=O)O)C2 [II-7, sodium 4-(5-(3-((2-(3-carboxylatopropanoyl)-6-hydroxybenzo[b]thiophen-5-yl)oxy)propoxy)-6-methoxyisoindolin-2-yl)-4-oxobutanoate] |  | IC50: 0.36 nM
6 | COc1cc2c(cc1OCCCOc1nc3cc(C(=O)CCC(=O)O)sc3cc1OC)CN(C(=O)CCC(=O)O)C2 [II-8, sodium 4-(5-(3-((2-(3-carboxylatopropanoyl)-6-methoxyisoindolin-5-yl)oxy)propoxy)-6-methoxythieno[3,2-b]pyridin-2-yl)-4-oxobutanoate] |  | IC50 [2]: 1.04 nM
7 | COc1cc2c(cc1OCCCOc1cc3cc(C(=O)CCC(=O)O)sc3cc1Br)CN(C(=O)CCC(=O)O)C2 [II-9, 4-(5-(3-((6-bromo-2-(3-carboxypropanoyl)benzo[b]thiophen-5-yl)oxy)propoxy)-6-methoxyisoindolin-2-yl)-4-oxobutanoic acid] |  | IC50: 0.65 nM
8 | C=C(COc1c(OC)cc2c(c1Cl)CN(C(=O)CCC(=O)O)C2)COc1c(OC)cc2sc(C(=O)CCC(=O)O)cc2c1F [II-16, 4-(5-((2-(((2-(3-carboxypropanoyl)-4-chloro-6-methoxyisoindolin-5-yl)oxy)methyl)allyl)oxy)-4-fluoro-6-methoxybenzo[b]thiophen-2-yl)-4-oxobutanoic acid] |  | IC50 [2]: > 150 nM
